Measured values reported in article PMC4529334, “Activity of second-generation ALK inhibitors against crizotinib-resistant mutants in an NPM-ALK model compared to EML4-ALK” (Cancer Medicine, 2015).

Assays:
EML4-ALK (EA WT) [1] = details: […] h, […] °C, no IL-3; ALK-dependent cell growth; stated gain
NPM-ALK (NA WT) [2] = tested on: T1, NPM-ALK (NA WT); assay: Ba/F3 proliferation, [3H]-thymidine incorporation; type: cell-based, Homo sapiens; details: […] °C, no IL-3, ALK-dependent cell growth, parental Ba/F3 as control
T1 construct: NPM-ALK fusion from t(2;5)(p23;q35), pcDNA3.0, stably expressed in murine Ba/F3 cells (IL-3-independent); single fused polypeptide NPM1 N-terminal part + ALK C-terminal part with kinase domain; with Nucleophosmin

NPM-ALK (NA WT) [3] = tested on: T1, NPM-ALK (NA WT); assay: Ba/F3 proliferation, [3H]-thymidine incorporation; type: cell-based, Homo sapiens; details: […] °C, no IL-3, ALK-dependent cell growth, stated gain
EML4-ALK (EA WT) [4] = tested on: T2, EML4-ALK (EA WT); assay: Ba/F3 proliferation, [3H]-thymidine incorporation; type: cell-based, Homo sapiens; details: […] °C, no IL-3, ALK-dependent cell growth, parental Ba/F3 as control
T2 construct: EML4-ALK fusion (EML4 exon 6 to ALK exon 20) in pCDH-CMV-MCS-EF1-Puro, stably expressed in murine Ba/F3 cells (IL-3-independent); single fused polypeptide; with Echinoderm microtubule-associated protein-like 4

NPM-ALK (NA WT) [5] = details: […] h, […] °C, no IL-3; ALK-dependent cell growth; stated gain
Source text: Ba/F3 proliferation, [3H]-thymidine incorporation on NPM-ALK (NA WT)

EML4-ALK (EA WT) [6] = tested on: T2, EML4-ALK (EA WT); assay: Ba/F3 proliferation, [3H]-thymidine incorporation; type: cell-based, Homo sapiens; details: […] °C, no IL-3, ALK-dependent cell growth, parental Ba/F3 as control; remark: listed apart in the source
Source text: Ba/F3 proliferation, [3H]-thymidine incorporation on EML4-ALK (EA WT)

NPM-ALK (NA WT) [7] = tested on: T1, NPM-ALK (NA WT); assay: Ba/F3 proliferation, [3H]-thymidine incorporation; type: cell-based, Homo sapiens; details: […] °C, no IL-3, ALK-dependent cell growth, parental Ba/F3 as control; remark: listed apart in the source

In the case of COc1cc(N2CCC(N3CCN(C)CC3)CC2)ccc1Nc1ncc(Cl)c(Nc2ccccc2P(C)(C)=O)n1 [AP26113], the “IC50 (μmol/L) / AP26113” value (EML4-ALK (EA WT) [1]) is reported as 0.021 µmol/L.
In the case of COc1cc(N2CCC(N3CCN(C)CC3)CC2)ccc1Nc1ncnc(Nc2ccccc2S(=O)(=O)C(C)C)n1 [ASP3026], the “IC50 (μmol/L) / ASP3026” value (NPM-ALK (NA WT) [2]) is reported as 0.084 µmol/L, the “IC50 (μmol/L) / ASP3026” value (NPM-ALK (NA WT) [3]) is reported as 2.763 µmol/L and the “IC50 (μmol/L) / ASP3026” value (EML4-ALK (EA WT) [4]) is reported as 0.056 µmol/L.
